Data as given in patent US20040235855A1, “Phospholipase C inhibitors for use in treating inflammatory disorders” (priority 2003, published 2004).

Key:
human PLC-β2 = target: T1, human PLC-β2 (Homo sapiens, UniProt Q00722); test: PLC assay using FlashPlates (96-well, immobilized [3H]PIP2 substrate); format: biochemical; settings: purified recombinant human PLC-β2 or cytosolic human PLC-β2; hydrolysis of [3H]PIP2
T1 construct: made in house; host or cells: Sf9 cells (Spodoptera frugiperda), recombinant baculovirus
T1 sequence (Q00722 whole entry): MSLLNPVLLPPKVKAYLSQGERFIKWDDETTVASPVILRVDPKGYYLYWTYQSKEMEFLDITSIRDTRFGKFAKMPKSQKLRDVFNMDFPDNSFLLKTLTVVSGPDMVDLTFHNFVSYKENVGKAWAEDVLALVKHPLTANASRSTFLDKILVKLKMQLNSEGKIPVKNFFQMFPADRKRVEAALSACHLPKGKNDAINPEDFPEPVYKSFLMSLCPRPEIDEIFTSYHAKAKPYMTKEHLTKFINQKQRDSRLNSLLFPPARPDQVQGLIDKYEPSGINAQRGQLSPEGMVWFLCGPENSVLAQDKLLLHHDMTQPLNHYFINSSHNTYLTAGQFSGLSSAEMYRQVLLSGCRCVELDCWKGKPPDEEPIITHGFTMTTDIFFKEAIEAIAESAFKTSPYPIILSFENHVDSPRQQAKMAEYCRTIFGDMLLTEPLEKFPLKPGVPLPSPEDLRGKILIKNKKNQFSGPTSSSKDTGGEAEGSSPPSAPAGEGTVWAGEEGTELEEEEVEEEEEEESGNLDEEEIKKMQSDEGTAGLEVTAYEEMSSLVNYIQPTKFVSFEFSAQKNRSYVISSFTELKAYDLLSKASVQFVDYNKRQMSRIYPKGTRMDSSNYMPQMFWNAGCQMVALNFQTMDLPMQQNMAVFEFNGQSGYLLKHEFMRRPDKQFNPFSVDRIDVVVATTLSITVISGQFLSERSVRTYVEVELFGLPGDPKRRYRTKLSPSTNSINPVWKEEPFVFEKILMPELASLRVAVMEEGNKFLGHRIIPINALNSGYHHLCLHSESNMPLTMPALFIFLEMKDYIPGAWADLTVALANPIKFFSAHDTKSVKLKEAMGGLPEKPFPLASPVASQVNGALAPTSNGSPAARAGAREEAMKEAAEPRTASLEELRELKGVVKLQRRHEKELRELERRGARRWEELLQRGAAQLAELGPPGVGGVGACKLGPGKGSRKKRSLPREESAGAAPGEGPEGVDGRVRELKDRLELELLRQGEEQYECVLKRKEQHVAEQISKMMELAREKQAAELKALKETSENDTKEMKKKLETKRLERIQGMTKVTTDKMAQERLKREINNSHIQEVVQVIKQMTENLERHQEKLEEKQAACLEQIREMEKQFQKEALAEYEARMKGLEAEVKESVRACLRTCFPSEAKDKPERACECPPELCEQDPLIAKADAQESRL
Procedure, shortened: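 Purified recombinant human PLC-β2 (Sf9 baculovirus) or cytosolic PLC-β2 from HL-60 cells hydrolysed [3H]PIP2 immobilised on phospholipid FlashPlates. Reactions ran in 50 mM Tris/HCl pH 7.2 with EDTA, KCl, LiCl, 0.04% DOC and 2 mM CaCl2. Activity was read as loss of bound radioactivity by scintillation counting.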

PMA-induced ear edema [1] = test: Acute PMA-induced ear edema mouse model; format: in vivo
Excerpt: The acute PMA-induced ear edema mouse model was used to test compounds of the present […] (as described in Carlson R P, O'Neill-Davis L, Chang J. and Lewis A J, Modulation of Mouse Ear Edema by Cyclooxygenase and Lipoxygenase Inhibitors and Other Pharmacologic Agents, Agents and Actions, 1985, 17:197-204).

[2] = test system: zymosan-induced peritonitis; test: Zymosan-induced peritonitis mouse model; format: in vivo; settings: 30 mpk dose administered i.p.
Excerpt: The zymosan-induced peritonitis model was used to test Compound 38 (as described in Rao T S, Currie J L, Shaffer A F and Isakson P C, In vivo Characterization of Zymosan-Induced Mouse Peritoneal Inflammation, J. Pharm. Exptl. Ther., 1994, 269: 917-925).

[3] = test system: carageenan-induced paw edema; test: Carageenan-induced paw edema rat model; format: in vivo
Excerpt: The carageenan-induced paw edema rat model was used to test Compound 38 (as described in Vinegar R, Truax J F, Selph J L, Johnston P R, Venable A L and McKenzie K K, Pathway to Carrageenan-Induced Inflammation in the Hind Limb of the Rat, Fed. Proc., 1987, 46:118-126).

PMA-induced ear edema [4] = test: Chronic PMA-induced ear edema mouse model; format: in vivo; settings: 0.5 mg dose applied topically
Excerpt: The chronic PMA-induced ear edema mouse model was used to test Compound 38 (as described in Stanley P L, Steiner S, Havens M and Tramposch K M, Mouse Skin Inflammation Induced by Multiple Topical Applications of 12-O-Tetradecanoylphorbol-13-acetate, Skin Pharmacol., 1991, 4: 262-271).

[5] = test system: adjuvant-induced arthritis; test: Adjuvant-induced arthritis rat model; format: in vivo; settings: administered i.p.
Excerpt: The adjuvant-induced arthritis rat model was used to test Compound 38 (as described in Anderson G D, Hauser S D, McGarity K L, Bremer M E, Isakson P C and Gregory S A, Selective Inhibition of Cyclooxygenase (Cox)-2 Reverses Inflammation and Expression of Cox-2 and Interleukein 6 in Rat Adjuvant Arthritis, J. Clin. Invest., 1996, 97:2672-2679).

For `NC(=O)c1ccc(N2CCN(C(c3ccc(F)cc3)c3ccc(F)cc3)CC2)c(NC(=S)NCc2ccccc2)c1` [Cpd 21, 4-[4-[bis(4-fluorophenyl)methyl]-1-piperazinyl]-3-[[[(phenylmethyl)amino]thioxomethyl]amino]-benzamide], the IC50 (human PLC-β2) was 2300 nM, the “% Inhibition” value (PMA-induced ear edema [1]; 5 mpk i.v.) was 56% and the “% Inhibition” value (PMA-induced ear edema [1]; 30 mpk i.p.) was 83%. The “% Inhibition” value (PMA-induced ear edema [1]; 30 mpk p.o.) was 31%.
For `NC(=O)c1ccc(N2CCN(C3c4ccccc4-c4ccccc43)CC2)c(NC(=O)Nc2ccccc2)c1` [Cpd 9, 4-[4-(9H-fluoren-9-yl)-1-piperazinyl]-3-[[(phenylamino)carbonyl]amino]-benzamide], the IC50 (human PLC-β2) was 1900 nM, the “% Inhibition” value (PMA-induced ear edema [1]; 5 mpk i.v.) was 44% and the “% Inhibition” value (PMA-induced ear edema [1]; 30 mpk i.p.) was 52%. For the same compound, the “% Inhibition” value (PMA-induced ear edema [1]; 30 mpk p.o.) was 44%.
For `O=C(Nc1ccccc1)Nc1cc(C(=O)N2CCNCC2)ccc1N1CCN(C(c2ccccc2)c2ccccc2)CC1` [Cpd 40, N-[2-[4-(diphenylmethyl)-1-piperazinyl]-5-(1-piperazinylcarbonyl)phenyl]-N′-phenylurea], the IC50 (human PLC-β2) was 1600 nM, the “% Inhibition” value (PMA-induced ear edema [1]; 5 mpk i.v.) was 44% and the “% Inhibition” value (PMA-induced ear edema [1]; 30 mpk i.p.) was 81%. For the same compound, the “% Inhibition” value (PMA-induced ear edema [1]; 30 mpk p.o.) was 9%.
In the case of `O=C(Nc1cc(C(=O)N2CCNCC2)ccc1N1CCN(C(c2ccccc2)c2ccccc2)CC1)NC1CCCCC1` [Cpd 38, N-cyclohexyl-N′-[2-[4-(diphenylmethyl)-1-piperazinyl]-5-(1-piperazinylcarbonyl)phenyl]-urea], the inhibition [2] is reported as “about 45%”, the IC50 (human PLC-β2) is reported as 2200 nM and the inhibition ([3]; 30 mpk dose administered i.p.) is reported as 80%. For the same compound, the inhibition ([3]; 30 mpk dose administered s.c.) was 60%, the “% Inhibition” value (PMA-induced ear edema [1]; 5 mpk i.v.) was 47% and the “% Inhibition” value (PMA-induced ear edema [1]; 30 mpk i.p.) was 84%. For the same compound, the “% Inhibition” value (PMA-induced ear edema [1]; 30 mpk p.o.) was 0%, the inhibition (PMA-induced ear edema [4]) was 53% and the inhibition in paws [5] was “significant inhibition in both paws”.
Work on `O=C(Nc1ccccc1)Nc1cc(C(=O)N2CCCNCC2)ccc1N1CCN(C(c2ccccc2)c2ccccc2)CC1` [Cpd 24, N-[2-[4-(diphenylmethyl)-1-piperazinyl]-5-[(hexahydro-1H-1,4-diazepin-1-yl)carbonyl]phenyl]-N′-phenylurea] yielded an IC50 (human PLC-β2) of 870 nM.
Work on `O=C(Nc1ccccc1)Nc1ccc(C(=O)N2CCNCC2)cc1N1CCCN(C(c2ccc(F)cc2)c2ccc(F)cc2)CC1` [Cpd 89, N-[2-[4-[bis(4-fluorophenyl)methyl]hexahydro-1H-1,4-diazepin-1-yl]-4-(1-piperazinylcarbonyl)phenyl]-N′-phenyl-urea] yielded an IC50 (human PLC-β2) of 810 nM.
For `NC(=O)c1ccc(N2CCCN(C(c3ccc(F)cc3)c3ccc(F)cc3)CC2)c(NC(=O)NC2CCCCC2)c1` [Cpd 82, 4-[4-[bis(4-fluorophenyl)methyl]hexahydro-1H-1,4-diazepin-1-yl]-3-[[(cyclohexylamino)carbonyl]amino]-benzamide], the IC50 (human PLC-β2) was roughly 10000 nM.
